Experimental data as given in patent US12679839B2, “Cyclin-dependent kinase 7 (CDK7) non-covalent inhibitors” (JANSSEN PHARMACEUTICA NV, priority 2020, dated 2026).

Tests used:
[1] = biological target: T1, CDK7/Cyclin H/MAT-1 complex (Homo sapiens, UniProt P50613); experiment: Absorbance kinetic assay (20 nM CDK7/Cyclin H/MAT-1 complex); format: biochemical; conditions: read-out: CDK7 (20 nM) pIC50 (converted)
T1 construct: Human CDK7 (amino acids 1-346); His6 (N); TEV protease cleavage site (N); made in house; host or cells: baculovirus-SF9 insect cells
T1 sequence (P50613 whole entry, the tested form may be a part): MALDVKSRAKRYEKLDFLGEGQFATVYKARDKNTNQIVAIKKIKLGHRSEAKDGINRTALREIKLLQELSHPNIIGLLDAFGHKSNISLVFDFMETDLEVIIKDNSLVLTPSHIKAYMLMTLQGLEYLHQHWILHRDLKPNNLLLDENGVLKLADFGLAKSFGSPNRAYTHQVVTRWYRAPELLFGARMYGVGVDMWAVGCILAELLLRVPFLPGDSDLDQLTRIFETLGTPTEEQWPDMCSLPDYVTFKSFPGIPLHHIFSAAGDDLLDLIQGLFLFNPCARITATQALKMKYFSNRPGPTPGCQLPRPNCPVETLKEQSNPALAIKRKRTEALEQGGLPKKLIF
T1 sequence (P51946 whole entry partner, the tested form may be a part): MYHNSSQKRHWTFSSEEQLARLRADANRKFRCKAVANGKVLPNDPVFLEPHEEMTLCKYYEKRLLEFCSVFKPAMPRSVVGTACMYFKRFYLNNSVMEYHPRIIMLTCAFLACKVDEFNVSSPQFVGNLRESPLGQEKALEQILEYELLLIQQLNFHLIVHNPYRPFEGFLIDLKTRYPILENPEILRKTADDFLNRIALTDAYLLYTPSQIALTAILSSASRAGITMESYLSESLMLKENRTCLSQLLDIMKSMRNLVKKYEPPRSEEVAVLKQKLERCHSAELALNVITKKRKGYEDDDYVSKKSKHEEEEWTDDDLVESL
T1 sequence (P51948 whole entry partner, the tested form may be a part): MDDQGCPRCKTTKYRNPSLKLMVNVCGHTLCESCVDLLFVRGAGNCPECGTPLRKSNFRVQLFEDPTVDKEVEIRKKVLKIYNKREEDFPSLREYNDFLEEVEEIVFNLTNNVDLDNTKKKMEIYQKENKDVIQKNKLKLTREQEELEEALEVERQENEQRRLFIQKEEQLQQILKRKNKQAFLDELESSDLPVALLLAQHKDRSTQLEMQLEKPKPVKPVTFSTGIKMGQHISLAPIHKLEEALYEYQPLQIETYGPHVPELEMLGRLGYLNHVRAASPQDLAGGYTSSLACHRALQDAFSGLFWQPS
Procedure, shortened: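 Trimeric complex (His6-TEV CDK7 1-346, MAT1 1-309, cyclin H 1-323) from Sf9 cells, at 20 nM, phosphorylating RNA Pol II-derived CDK7/9-tide; ADP coupled via PK/LDH to NADH depletion read at 340 nm every 2 min for 8 h. Steady-state slopes gave % inhibition; IC50 from 11-point Hill fit.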

[2] = biological target: T1, CDK7/Cyclin H/MAT-1 complex; experiment: Flint assay, end-point fluorescence (5 nM CDK7/Cyclin H/MAT-1 complex); format: biochemical; conditions: read-out: CDK7 (5 nM) pIC50 (converted)
Procedure, shortened: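 Trimeric complex of His6-TEV-tagged human CDK7 (1-346), MAT1 (1-309) and cyclin H (1-323), co-expressed in Sf9 cells, at 5 nM final, with substrates and coupling reagents as in the absorbance assay; 24 h reaction. End-point NADH fluorescence decrease (ex 340/em 440 nm); % inhibition versus no-inhibitor and full-inhibition controls, IC50 from four-parameter Hill fit.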

Compound | IC50 [1] [µM] | IC50 [2] [µM]
C[C@@H]1Cc2cnc(NCc3ccn(C)n3)nc2CN1C(=O)[C@H]1CCN(C)C[C@@H]1c1cccc(C(F)(F)F)c1 (relative stereo) [Compound 129] | 0.0117 | 0.0049
CC1CN(C(=O)[C@H]2CCN(C)C[C@@H]2c2ccccc2)Cc2nc(Nc3cnn(C)c3)ncc21 (mixture of isomers) [Compound 194] | 0.0178 | 0.00617
C[C@@H]1CN(C(=O)[C@H]2CCN(C)C[C@@H]2c2ccccc2)Cc2nc(NC3CCOCC3)ncc21 (relative stereo) [Compound 188] | < 0.00977 | 0.00282
C[C@@H]1Cc2cnc(N[C@H]3CCOC(C)(C)C3)nc2CN1C(=O)[C@H]1CCN(C)C[C@@H]1c1ccccc1 (relative stereo) [Compound 39] | < 0.02 | 0.00501
C[C@@H]1Cc2cnc(N[C@H]3CCCNC3)nc2CN1C(=O)[C@H]1CCN(C)C[C@@H]1C(F)(F)F (relative stereo) [Compound 144] | < 0.00977 | 0.01
Cc1cccc([C@@H]2CN(C)CC[C@H]2C(=O)N2Cc3nc(NCc4ccn(C)n4)ncc3C[C@H]2C)c1 (relative stereo) [Compound 136] | 0.0115 | 0.0158
CO[C@H]1CC[C@H](Nc2ncc3c(n2)CN(C(=O)[C@@H]2CCN(C)C[C@H]2c2ccnc(C)c2)[C@H](C)C3)CC1 (relative stereo) [Compound 105] | < 0.00977 | 0.01
C[C@@H]1Cc2cnc(NCc3ccn(C)n3)nc2CN1C(=O)[C@H]1CCN(C)C[C@@H]1C(F)(F)F (relative stereo) [Compound 143] | < 0.00977 | 0.00891
C[C@@H]1CN(C)CC[C@H]1C(=O)N1Cc2nc(NC3CCOCC3)ncc2C[C@H]1C (relative stereo) [Compound 145] | 0.0676 | 0.1
Cc1cccc([C@H]2CN(C)CC[C@@H]2C(=O)N2Cc3nc(NC4CCOCC4)ncc3C[C@H]2C)c1 (relative stereo) [Compound 134] | < 0.00977 | 0.00316

More lines, now with the values ahead:

IC50 [1] [µM] | IC50 [2] [µM] | Compound
< 0.00977 | 0.0049 | C[C@@H]1Cc2cnc(NC3CCOCC3)nc2[C@H](C)N1C(=O)[C@H]1CCN(C)C[C@@H]1c1ccccc1 (single isomer, unassigned) [Compound 195b]
0.0178 | 0.0224 | CN1CC[C@H](C(=O)N2Cc3nc(NC4CCOCC4)ncc3CC2(C)C)[C@@H](c2ccccc2)C1 (relative stereo) [Compound 189]
0.105 | 0.0195 | Cc1cc([C@@H]2CN(C)CC[C@H]2C(=O)N2Cc3nc(NC4CCOCC4)ncc3C[C@H]2C)ccn1 (relative stereo) [Compound 102]
< 0.00977 | < 0.00251 | [2H]C([2H])([2H])N1CC[C@@H](C(=O)N2Cc3nc(NCc4ccn(C)n4)ncc3C[C@H]2C)[C@H](c2cccc(C)c2)C1 (single isomer, unassigned) [Compound 148]
0.126 | 0.105 | C[C@H]1CN(C(=O)[C@H]2CCN(C)C[C@@H]2c2ccccc2)[C@@H](C)c2nc(NC3CCOCC3)ncc21 (relative stereo) [Compound 181]
0.0912 | 0.049 | C[C@@H]1Cc2cnc(NCc3ccn(C)n3)nc2CN1C(=O)[C@H]1CCN(C)C[C@@H]1c1ccccc1C(F)F (relative stereo) [Compound 139]
0.0123 | 0.00813 | C[C@@H]1Cc2cnc(NC3CCOCC3)nc2CN1C(=O)[C@H]1CCN(C)C[C@@H]1c1cccc(F)c1 (relative stereo) [Compound 133]
< 0.00977 | 0.0038 | C[C@@H]1Cc2cnc(N[C@@H]3CCC(=O)N(C)C3)nc2CN1C(=O)[C@H]1CCN(C)C[C@@H]1c1ccccc1 (relative stereo) [Compound 6]
0.00977 | 0.00363 | C[C@@H]1Cc2cnc(NC3CCOCC3)nc2CN1C(=O)[C@H]1CCN(C)C[C@@H]1c1ccc(Cl)cc1 (relative stereo) [Compound 132]
< 0.00977 | 0.00251 | [2H]C([2H])([2H])N1CC[C@H](C(=O)N2Cc3nc(NCc4ccccc4)ncc3C[C@H]2C)[C@@H](c2ccccc2)C1 (single isomer, unassigned) [Compound 154]
0.0115 | 0.0174 | C[C@@H]1Cc2cnc(NC3CCOCC3)nc2CN1C(=O)[C@H]1CCN(C)C[C@@H]1C (relative stereo) [Compound 146]
0.0398 | 0.00851 | C[C@@H]1Cc2cnc(NCc3ccccc3)nc2CN1C(=O)[C@@H]1CCN(C)C[C@H]1C(F)(F)F (relative stereo) [Compound 141]
